Like-named read-outs stand apart in the source and are kept apart here.
Columns and labels:
[1] = system: Puccinia recondita f. sp. tritici; experiment: Puccinia recondita f. sp. tritici/Wheat/Leaf Disc Curative (Brown Rust); format: in vivo; conditions: foliar, wheat leaf disc curative, compared to untreated control
Method: Wheat leaf segments cv. Kanzler are placed on agar in multiwell plates (24-well format). The leaf segments are inoculated with a spore suspension of the fungus. Plates are stored in darkness at 19° C. and 75% rh. The formulated test compound diluted in water is applied 1 day after inoculation. The leaf segments are incubated at 19° C. and 75% rh under a light regime of 12 h light/12 h darkness in a climate cabinet and the activity of a compound is assessed as percent disease control compared to untreated when an appropriate level of disease damage appears in untreated check leaf segments (6-8 days after application).

Plasmopara viticola = experiment: whole plant or invertebrate; format: in vivo; conditions: foliar, read-out: control of Plasmopara viticola
[2] = system: Magnaporthe grisea (Pyricularia oryzae); experiment: whole plant or invertebrate; format: in vivo; conditions: foliar, read-out: control of Magnaporthe grisea
Phytophthora infestans = experiment: whole plant or invertebrate; format: in vivo; conditions: in Solanum lycopersicum, foliar, read-out: control of Phytophthora infestans
[3] = system: Botryotinia fuckeliana (Botrytis cinerea); experiment: Botryotinia fuckeliana (Botrytis cinerea)/Liquid Culture (Gray Mould); format: cell-based; conditions: liquid culture, compared to untreated control
Method: Conidia of the fungus from cryogenic storage are directly mixed into nutrient broth (Vogels broth). After placing a (DMSO) solution of test compound into a microtiter plate (96-well format), the nutrient broth containing the fungal spores is added.

[4] = system: Mycosphaerella graminicola (Septoria tritici); experiment: Mycosphaerella graminicola (Septoria tritici)/Liquid Culture (Septoria Blotch); format: cell-based; conditions: Zymoseptoria tritici; for inhibition of growth at 20 ppm: liquid culture, compared to untreated control; for inhibition of growth at 6 ppm: M. graminicola (B19), read-out: Disease control (%)
Summary of the method: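 Conidia from cryogenic storage mixed into potato dextrose broth and added to microtiter wells already holding DMSO solutions of test compound. Activity expressed as percentage disease control.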

[5] = system: Blumeria graminis f. sp. tritici (Erysiphe graminis f. sp. tritici); experiment: Blumeria graminis f. sp. tritici/Wheat/Leaf Disc Preventative (Powdery Mildew on Wheat); format: in vivo; conditions: foliar, wheat leaf disc preventative, compared to untreated control
Summary of the method: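 Wheat cv. Kanzler leaf segments on agar sprayed with formulated compound, inoculated with powdery mildew 1 day later and held at 20° C, 60% rh (24 h dark, then 12 h light/12 h dark). Percent disease control versus untreated scored 6-8 days after application.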

[6] = system: Mycosphaerella arachidis (Cercospora arachidicola); experiment: Mycosphaerella arachidis (Cercospora arachidicola)/Liquid Culture (Early Leaf Spot); format: cell-based; conditions: liquid culture, compared to untreated control
Summary of the method: (§1)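 Test compound dissolved in DMSO is dispensed first; nutrient broth (potato dextrose) carrying conidia thawed from cryogenic storage follows.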

[7] = system: Monographella nivalis (Microdochium nivale); experiment: Monographella nivalis (Microdochium nivale)/Liquid Culture (Foot Rot Cereals); format: cell-based; conditions: liquid culture, compared to untreated control
Summary of the method: as §1

[8] = system: Glomerella lagenarium (Colletotrichum lagenarium); experiment: Glomerella lagenarium (Colletotrichum lagenarium)/Liquid Culture (Anthracnose); format: cell-based; conditions: Colletotrichum orbiculare, liquid culture, compared to untreated control
[9] = system: Puccinia recondita f. sp. tritici; experiment: Puccinia recondita f. sp. tritici/Wheat/Leaf Disc Preventative (Brown Rust); format: in vivo; conditions: foliar
Phakopsora pachyrhizi = experiment: Phakopsora pachyrhizi/Soybean/Preventative (Soybean Rust); format: in vivo; conditions: foliar, 288 h, 200 ppm, soybean leaf disc preventative, compared to untreated control, read-out: control of Phakopsora pachyrhizi
[10] = system: Phaeosphaeria nodorum (Septoria nodorum); experiment: Phaeosphaeria nodorum (Septoria nodorum)/Wheat/Leaf Disc Preventative (Glume Blotch); format: in vivo; conditions: Parastagonospora nodorum, foliar, wheat leaf disc preventative, compared to untreated control
Summary of the method: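 Wheat cv. Kanzler leaf discs on agar were sprayed with formulated compound diluted in water and inoculated with P. nodorum spores 2 days later. Discs kept at 20 °C, 75% rh, 12 h light/dark; percent disease control versus untreated scored 5–7 days after application.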

Pyrenophora teres = experiment: Pyrenophora teres/Barley/Leaf Disc Preventative (Net Blotch); format: in vivo; conditions: foliar
Description: Barley leaf segments cv. Hasso are placed on agar in a multiwell plate (24-well format) and sprayed with the formulated test compound diluted in water. The leaf segments are inoculated with a spore suspension of the fungus 2 days after application. […] The data are presented as the percentage of disease control of each compound for the biological tests against G. lagenarium (Example B3), P. recondita preventative (Example B13), P. teres (Example B15) and M. graminicola (Example B19) as described above. The testing rates of each biological test is specifically described in table C1 below.

[11] = wheat leaf disc preventative, compared to untreated control, read-out: control of Puccinia recondita f. sp. tritici
[12] = P. teres (B15), read-out: Disease control (%)
[13] = P. recondita prev (B13), read-out: Disease control (%)

Row | SMILES | pest or weed control at 200 ppm [1] | pest or weed control at 200 ppm (Plasmopara viticola) | pest or weed control at 200 ppm [2] | pest or weed control at 200 ppm (Phytophthora infestans) | inhibition of growth at 20 ppm [3] | inhibition of growth at 20 ppm [4] | pest or weed control at 200 ppm [5] | inhibition of growth at 20 ppm [6] | melting point | inhibition of growth at 20 ppm [7] | inhibition of growth at 20 ppm [8] | pest or weed control at 200 ppm [9, 11] | pest or weed control at 200 ppm (Phakopsora pachyrhizi) | pest or weed control at 200 ppm [10] | pest or weed control at 200 ppm (Pyrenophora teres; barley leaf disc preventative, compared to untreated control, read-out: control of Pyrenophora teres) | pest or weed control at 200 ppm (Pyrenophora teres; [12]) | inhibition of growth at 6 ppm [4] | pest or weed control at 60 ppm [9, 13] | pest or weed control at 20 ppm (Pyrenophora teres; P. teres (B15), 20 ppm, read-out: Disease control (%)) | pest or weed control at 200 ppm [9, 13]
1 | CO/C=C(\Oc1cc(-n2ccc(C(C)C)n2)c(C)cc1C)C(=O)OC [Compound E-25, methyl (Z)-2-[5-(3-isopropylpyrazol-1-yl)-2,4-dimethyl-phenoxy]-3-methoxy-prop-2-enoate] | ≥ 80% | ≥ 80% | ≥ 80% | ≥ 80% | ≥ 80% | ≥ 80% | ≥ 80% | ≥ 80% | 96 to 98 °C | ≥ 80% | ≥ 80% | ≥ 80% | – | – | – | – | – | – | – | –
2 | CO/C=C(\Oc1cc(-n2ccc(C)n2)c(OC)cc1C)C(=O)OC [Compound E-37, methyl (Z)-3-methoxy-2-[4-methoxy-2-methyl-5-(3-methylpyrazol-1-yl)phenoxy]prop-2-enoate] | ≥ 80% | ≥ 80% | – | – | ≥ 80% | ≥ 80% | – | ≥ 80% | 99 to 101 °C | ≥ 80% | – | ≥ 80% | ≥ 50% | – | – | – | – | – | – | –
3 | CO/C=C(\Oc1cc(-n2cc(Br)cn2)ccc1C)C(=O)OC [Compound E-47, methyl (Z)-2-[5-(4-bromopyrazol-1-yl)-2-methyl-phenoxy]-3-methoxy-prop-2-enoate] | ≥ 80% | ≥ 80% | ≥ 80% | ≥ 80% | ≥ 80% | ≥ 80% | ≥ 80% | ≥ 80% | – | ≥ 80% | ≥ 80% | ≥ 80% | ≥ 50% | ≥ 80% | – | – | – | – | – | –
4 | CO/C=C(\Oc1cc(-n2cc(C(C)(C)C)cn2)ccc1C)C(=O)OC [Compound E-49, methyl (Z)-2-[5-(4-tert-butylpyrazol-1-yl)-2-methyl-phenoxy]-3-methoxy-prop-2-enoate] | ≥ 80% | ≥ 80% | ≥ 80% | ≥ 80% | ≥ 80% | ≥ 80% | – | ≥ 80% | – | ≥ 80% | ≥ 80% | ≥ 80% | – | ≥ 80% | – | – | – | – | – | –
5 | CO/C=C(\Oc1cc(-n2ccc(OC(F)F)n2)ccc1C)C(=O)OC [Compound E-66, methyl (Z)-2-[5-[3-(difluoromethoxy)pyrazol-1-yl]-2-methyl-phenoxy]-3-methoxy-prop-2-enoate] | ≥ 80% | ≥ 80% | – | – | ≥ 80% | ≥ 80% | ≥ 80% | ≥ 80% | 123 to 126 °C | ≥ 80% | ≥ 80% | ≥ 80% | – | ≥ 80% | – | – | – | – | – | –
6 | CO/C=C(\Oc1cc(-n2ccc(C#N)n2)ccc1C)C(=O)OC [Compound E-89, methyl (Z)-2-[5-(3-cyanopyrazol-1-yl)-2-methyl-phenoxy]-3-methoxy-prop-2-enoate] | – | ≥ 80% | – | – | – | ≥ 80% | – | – | – | ≥ 80% | – | ≥ 80% | ≥ 50% | – | ≥ 80% | – | – | – | – | –
7 | CCOc1ccn(-c2ccc(C)c(O/C(=C\OC)C(=O)OC)c2)n1 [Compound E-94, methyl (Z)-2-[5-(3-ethoxypyrazol-1-yl)-2-methyl-phenoxy]-3-methoxy-prop-2-enoate] | ≥ 80% | ≥ 80% | – | ≥ 80% | ≥ 80% | ≥ 80% | ≥ 80% | ≥ 80% | 94 to 96 °C | ≥ 80% | ≥ 80% | ≥ 80% | – | ≥ 80% | – | – | – | – | – | –
8 | CO/C=C(\Oc1cc(-n2ccc(OC)n2)ccc1C)C(=O)OC [Compound E-95, methyl (Z)-3-methoxy-2-[5-(3-methoxypyrazol-1-yl)-2-methyl-phenoxy]prop-2-enoate] | ≥ 80% | ≥ 80% | – | ≥ 80% | ≥ 80% | ≥ 80% | ≥ 80% | ≥ 80% | 120 to 123 °C | ≥ 80% | ≥ 80% | ≥ 80% | – | – | – | – | – | – | – | –
9 | CO/C=C(\Oc1cc(-n2cc(C)c(C)n2)ccc1C)C(=O)OC [Compound E-116, methyl (Z)-2-[5-(3,4-dimethylpyrazol-1-yl)-2-methyl-phenoxy]-3-methoxy-prop-2-enoate] | ≥ 80% | ≥ 80% | – | ≥ 80% | ≥ 80% | ≥ 80% | ≥ 80% | ≥ 80% | 155 to 157 °C | ≥ 80% | ≥ 80% | ≥ 80% | – | – | – | – | – | – | – | –
10 | CO/C=C(\Oc1cccc(-n2ncc(C3CC3)n2)c1)C(=O)OC [drawing 146] | – | – | – | – | – | – | – | – | – | – | – | – | – | – | – | 0% | 90% | 100% | – | –
11 | CO/C=C(\Oc1cc(-n2ncc(C3CC3)n2)ccc1C)C(=O)OC [drawing 147] | – | – | – | – | – | – | – | – | – | – | – | – | – | – | – | – | 100% | 100% | 50% | –
12 | CO/C=C(\Oc1cc(-n2ccc(C(F)(F)F)n2)c(F)cc1C)C(=O)OC [drawing 148] | – | – | – | – | – | – | – | – | – | – | – | – | – | – | – | 90% | 100% | 100% | – | –
13 | CO/C=C(\Oc1cc(-n2ccc(C(C)C)n2)ccc1C)C(=O)OC [drawing 149] | – | – | – | – | – | – | – | – | – | – | – | – | – | – | – | 0% | 100% | 100% | – | –
14 | CO/C=C(\Oc1cc(-n2ccc(OC(C)C)n2)ccc1C)C(=O)OC [drawing 150] | – | – | – | – | – | – | – | – | – | – | – | – | – | – | – | 90% | 100% | 100% | – | –
15 | CO/C=C(\Oc1cc(-n2ccc(C(F)(F)F)n2)ccc1C)C(=O)OC [drawing 152] | – | – | – | – | – | – | – | – | – | – | – | – | – | – | – | 90% | 100% | 100% | – | –
16 | CO/C=C(\Oc1cccc(-n2ccc(C(F)(F)F)n2)c1)C(=O)OC [drawing 153] | – | – | – | – | – | – | – | – | – | – | – | – | – | – | – | 50% | 70% | – | – | 90%
17 | CO/C=C(\Oc1cccc(-n2cccc2)c1)C(=O)OC [drawing 154, reference compound] | – | – | – | – | – | – | – | – | – | – | – | – | – | – | – | 0% | 20% | – | – | 0%

Reference: US12043600B2, “Microbiocidal compounds” (SYNGENTA CROP PROTECTION AG, priority 2018, dated 2024)
